Source: patent publication US8652540B2, “Method of using rhein for treating fibrotic conditions and tumors” (priority 2012, dated 2014)
Marks after values point to notes of the source that are not given here.

Experiments:
[1] = test system: Tgf-β1; experiment: Real-time PCR, TGF-β-stimulated LTC-14 cells: Tgf-β1; format: cell-based, rat; conditions: Rhein at 1, 10 and 100 μM; TGF-β 5 ng/mL
Source text: (§1) The synthesized cDNA template was applied to amplifications with rat-specific primers for Tgf-β1, Acta2, Col1-α1 and Mmp2 in a real-time PCR sequencer. Expression of the gene of interest was expressed as a Ct value and normalized to the internal control Gapdh. […] After amplifications by real-time PCR, expression of the gene of interest was expressed as a Ct value and normalized to the internal control Gapdh.

[2] = test system: Acta2; experiment: Real-time PCR, TGF-β-stimulated LTC-14 cells: Acta2; format: cell-based, rat; conditions: Rhein at 1, 10 and 100 μM; TGF-β 5 ng/mL
Source text: as §1

[3] = Body weights and tolerability of mice given Rhein orally; format: in vivo, C57BL6 mice
Method: (§2) C57BL6 mice at age of 6 to 8 weeks with body weight in the range of 20 to 24 grams were used in these experiments. Mice were randomly assigned into 5 groups. Control group received saline injections only; Rhein group was fed with Rhein (≧98% pure) dissolved in 0.5% sodium carboxymethyl cellulose (Sigma, USA) in a single dose of 0.4 mL at 50 mg/kg/day for 6 weeks; Cerulein group received 6 cerulein injections at 50 μg/kg three times a week for 6 weeks; Cer+Rh 6w group received cerulein injections same as Cerulein group plus oral gavage of a single dose of Rhein at 50 mg/kg/day from the first day of experimental period till the end in a total of 6 weeks; Cer+Rh 3w group received cerulein injections same as Cerulein group and Cer+Rh 6w group, but was given with Rhein at 50 mg/kg/day starting the first day of week 4 till the end of experiment in a total of 3 weeks (n=6/group). Upon scarification, pancreata were immediately removed, weighed, trimmed from fat and fixed in 4% paraformaldehyde-phosphate buffered saline (PBS) overnight at 4° C. Samples were then processed, embedded in paraffin wax, sectioned and subjected to Hematoxylin-eosin (H & E) staining or Sirius Red staining Levels of TNF-α· in animal serum samples were determined using commercial ELISA kits. Proteins extracted from pancreatic tissues were subjected to Western blotting analyses.

[4] = test system: fibronectin 1 (FN1); experiment: Western blotting of fibronectin in pancreatic tissues of CP mice; format: in vivo, C57BL6 mice; conditions: CP mice treated with Rhein vs non-Rhein-treated CP mice
Method: as §2

[5] = test system: α-SMA; experiment: α-SMA expression in pancreatic tissues (immunofluorescence, Western blotting), cerulein-treated mice; format: in vivo, C57BL6 mice; conditions: Rhein oral 50 mg/kg/day for 6 weeks
Method: as §2

[6] = test system: LTC-14 cells; format: cell-based
Method: LTC-14 cells were cultured at 37° C. under a humidified condition of 95% air and 5% CO2 in IMDM supplemented with 10% fetal bovine serum (FBS). Cells used in all the experiment were among passages 9 to 22. LTC-14 cells were seeded at a density of 1×10^4/well in a 96-well plate, and incubated with different concentrations of Rhein (dissolved in DMSO) for 24 hours. MTT reagent was added to the cells at the end of the 24-hour treatment period. After a 3-hour reaction time, MTT products were dissolved in DMSO and OD at 570 nm was taken.

[7] = test system: collagen; experiment: Sirius Red staining of collagenous proteins in pancreas of CP mice; format: in vivo, C57BL6 mice
Method: as §2

[8] = test system: α-SMA; experiment: Immunofluorescence assay for α-SMA in TGF-β-stimulated LTC-14 cells; format: cell-based, rat; conditions: TGF-β 5 ng/mL, Rhein 10 μM
Method: To study the effect of Rhein on TGF-β induced expression of fibrotic filament formation, LTC-14 cells were grown on poly-L-lysine coated glass coverslips at a density of 1×10^5 in a 24-well plate pre-incubated with TGF-β (5 ng/mL) for 24 hours before the treatment with or without Rhein (10 μM). At the time of harvest, cells were subjected to immunofluorescence assay for α-SMA immunoreactivities.

[9] = Pancreatic weight and H&E histology, cerulein-induced chronic pancreatitis mice; format: in vivo, C57BL6 mice
Method: as §2

[10] = test system: TNF-α; experiment: Serum TNF-α by ELISA, cerulein-induced chronic pancreatitis mice; format: in vivo, C57BL6 mice
Method: as §2

[11] = test system: Fn1; experiment: Expression of Fn1 in TGF-β-stimulated LTC-14 cells; format: cell-based, rat; conditions: recombinant TGF-β
[12] = test system: LTC-14 cells; experiment: TGF-β induced transformation of PSCs to myofibroblast-like cells (light microscope); format: cell-based, rat; conditions: TGF-β 5 ng/mL, Rhein 10 μM
Method: To study the effect of Rhein on TGF-β induced transformation of PSCs to myofibroblast-like cells, LTC-14 cells were grown at a density of 1×10^5 in a 24-well plate, pre-incubated with TGF-β (5 ng/mL) for 24 hours and treated with or without Rhein (10 μM). At the time of harvest, cells were examined with morphological alterations under a light microscope.

[13] = test system: Col1-α1; experiment: Real-time PCR, TGF-β-stimulated LTC-14 cells: Col1-α1; format: cell-based, rat; conditions: Rhein at 1, 10 and 100 μM; TGF-β 5 ng/mL
Source text: as §1

[14] = Rhein group: 50 mg/kg/day oral for 6 weeks, no cerulein

O=C(O)c1cc(O)c2c(c1)C(=O)c1cccc(O)c1C2=O [Rhein, 9,10-Dihydro-4,5-dihydroxy-9,10-dioxo-2-anthracenecarboxylic acid]
TGF-β-elevated mRNA expression level of Tgf-β1 [1]: significantly repressed
TGF-β-elevated mRNA expression level of Acta2 [2]: significantly repressed
Body wt (g), Mean ([3]; Cer + Rh 3 wk: cerulein injections plus Rhein 50 mg/kg/day from week 4, 3 weeks): 24.07* g
Body wt (g), Mean ([3]; Cer + Rh 6 wk: cerulein injections plus Rhein 50 mg/kg/day oral gavage for 6 weeks): 23.98* g
Body wt (g), Mean [3, 14]: 26.10 g
adverse effects ([3]; oral administration, animal study): no adverse effects
protein expression levels of fibronectin [4]: remarkably decreased
expression of α-SMA in the pancreatic tissues [5]: significantly inhibits
PSC proliferation ([6]; in vitro, dose-dependent): suppress PSC proliferation
LD50 (cytotoxicity) ([6]; rat, 24 h): approximately 130 μM
amounts of collagenous protein [7]: notably reduced
α-SMA expression (immunofluorescent staining) [8]: remarkably suppresses
histology of pancreatic tissues (acinar loss, lymphocyte infiltration, fibrosis) ([9]; CP mice, Rhein oral 50 mg/kg/day, H&E): less acinar loss (FIG. 1), lymphocyte infiltration and fibrosis
pancreatic weight ([9]; cerulein-induced pancreatitis mice, vs Cerulein group): significant restoration of pancreatic weight
TNF-α (ng/mL), Mean ([10]; Cer + Rh 3 wk: cerulein plus Rhein 50 mg/kg/day from week 4, 3 weeks): 32.52# ng/mL
TNF-α (ng/mL), Mean ([10]; Cer + Rh 6 wk: cerulein plus Rhein 50 mg/kg/day for 6 weeks): 31.18# ng/mL
TNF-α (ng/mL), Mean [10, 14]: 14.43 ng/mL
TGF-β-stimulated expression level of Fn1 [11]: suppresses
transformation of LTC-14 cells into myofibroblast-like phenotype [12]: represses the transformation
TGF-β-elevated mRNA expression level of Col1-α1 [13]: significantly repressed
